Source: patent US10428013B2, “Amide compound, preparation method and uses thereof” (Shanghai Institute of Phamaceutical Industry, priority 2011, dated 2019)

Experiments:
[1] = tested on: Hyperlipemia Model of SD Rat; assay: Screening in the hyperlipemia model of SD rat (fat emulsion by gavage; serum lipids); assay type: in vivo; details: hyperlipemia SD rats, 40 mg/kg, dosed 21 days, X ± SD
Description: Materials and Methods for Screening with the Compounds Prepared in Experiment 1 to 21 in the Hyperlipemia Model of SD Rat
SD rats, male, 150-180 g, supplied by Shanghai Slaccas Laboratory Animal Company Limited.
Preparation of fat emulsion: 500 g lard oil was weighed and placed into a vessel, heated for melting, and upon heating up to the temperature of 100° C., 200 g cholesterol was added and fully dissolved, then 20 g propylthiouracil was added. After full stirring and dissolving, 500 ml Tween 80 was added to give an oil phase. Meanwhile, 600 ml distilled water and 400 ml 1,2-propylene glycol were heated to 60° C. in water bath, and then 40 g sodium deoxycholate was added with stirring, until full dissolution, to give an aqueous phase. The aqueous phase was added into the oil phase and fully and uniformly mixed, to prepare the fat emulsion.
Formulation of the solution for the compounds: an appropriate amount of compounds was triturated with appropriate amount of Tween 80 for homogeneous dispersion, and then sufficient CMC-Na solution was added and fully triturated, suspended to give the solution for the compounds.
The animals were fed for acclimation for 3 days, with 8 animals as blank control (Control) according to weight, and the rest was subject to intragastric administration of fat emulsion at 1 ml/100 g weight at A.M. 9:00-11:00 daily for continuous 2 weeks; the animals were fasted for 12 hours, and had 1 ml blood sampled at orbital cavity, which was measured with the Hitachi Automatic Biochemical Analyzer 7080 for serum cholesterol (CHO), triglyceride (TO), low-density lipoprotein (LDL-C) and high-density lipoprotein (HDL-C), with the animals having CHO of 4-7 mmol/L for experiment.
The animals dosed with fat emulsion for 2 weeks were divided into model group (Model), simvastatin group (Sim, 10 mg/kg) and compound group (40 mg/kg) according to weight, and continued to receive intragastric administration with fat emulsion; at the same time, the dosed group was administered with respective amount of drug, and the model group was administered with equal volume of solvent. Fat emulsion was dosed by gavage at A.M., and drug was dosed at P.M. The animals were weighed at Monday, and were observed. The animals were dosed for continuous 21 days, and fasted for 12 hours, with 1 ml blood sampling at orbital cavity. The liver was exposed and observed for pathologic condition; after slicing and weighing, it was fixed into the 4% formaldehyde solution for pathologic examination.
The Hitachi Automatic Biochemical Analyzer 7080 was used to measure serum cholesterol (CHO), triglyceride (TG), low-density lipoprotein (LDL-C) and high-density lipoprotein (HDL-C).
Laboratory data were expressed as X±SD (Standard Deviation), and comparison between groups was carried out by t-testing.

[2] = tested on: Cholelithiasis Model of Golden Hamster; assay: Screening in the cholelithiasis model of golden hamster (biochemical measurement of bile); assay type: in vivo, golden hamsters; details: 40 mg/kg, dosed 45 days, X ± SD
Description: Screening with the Compounds Prepared in Experiment 1 to 21 in the Cholelithiasis Model of Golden Hamster
68 male golden hamsters, 50-60 g, supplied by Shanghai Slaccas Laboratory Animal Company Limited.
The animals were fed for acclimation for 3 days, with 8 animals as blank control (Control) according to weight. The control was dosed with normal rat feedstuff, and the rest was dosed with feedstuff leading to cholelithiasis (sucrose 32.1%, cheese 64.2%, cholesterol 0.2%, salt 3%, vitamin B1 […], concentrated fish liver oil 0.4%). The animals were fed for acclimation for another 7 days, and divided into model group (Model), simvastatin group (Sim, 10 mg/kg), Ursodesoxycholic acid group (UDCA, 40 mg/kg), and compound group, n=6/group.
[…] 2:00-3:00 daily. The animals were weighed at Monday, and observed for hair color, stool, and variation of activation level.
The animals were dosed for continuous 45 days and then fasted for 12 hours; were anesthetized with 30 mg/kg sodium secobarbital via intraperitoneal injection; had 1 ml blood sampled via abdominal aorta; had gallbladder exposed, with an orifice on the gallbladder being clamped by the ophthalmological pliers and bile in the gallbladder being sucked with 1 ml syringe.
The Hitachi Automatic Biochemical Analyzer 7080 was used to measure cholesterol (CHO), total total bilirubin (TBIL), total bile acid (TBA) and total protein (TP) in bile.
Laboratory data was expressed as X±SD, and comparison of measurement data between groups was carried out by t-testing, with non-parametric testing for enumeration data.

SMILES	CHO1 Concentration (serum cholesterol) [1] [mmol/L]	HDL-C Concentration (serum high-density lipoprotein) [1] [mmol/L]	LDL-C Concentration (serum low-density lipoprotein) [1] [mmol/L]	TG Concentration (serum triglyceride) [1] [mmol/L]	Cholesterol (CHO) in bile [2] [mmol/L]	Total bile acid (TBA) in bile [2] [mmol/L]	Total protein (TP) in bile [2] [g/L]	Total total bilirubin (TBIL) in bile [2] [µmol/L]
Cc1ccc(C)c(OCCCC(C)(C)C(=O)NCC(=N)c2ccc(O)c(Cl)c2)c1 [Compound 17]	10.54 ± 3.23	1.82 ± 0.22	8.13 ± 3.46	0.88 ± 0.28	–	–	–	–
CC(C)(Oc1ccc(CCNC(=O)c2ccc(Cl)cc2)cc1)C(=O)NCC(=O)c1ccc(O)cc1 [Compound 01]	14.84 ± 1.06	1.56 ± 0.25	13.90 ± 1.23	0.66 ± 0.13	–	–	–	–
CC(C)(Oc1ccc(Cl)cc1)C(=O)NCC(=O)c1ccc(OC(=O)C(C)(C)Oc2ccc(Cl)cc2)cc1 [Compound 10]	9.73 ± 1.79	2.66 ± 0.24	8.27 ± 1.46	0.94 ± 0.15	–	–	–	–
CC(C)(Oc1ccc(CCNC(=O)c2ccc(Cl)cc2)cc1)C(=O)NCC(=O)c1ccc(OC(=O)C(C)(C)Oc2ccc(CCNC(=O)c3ccc(Cl)cc3)cc2)cc1 [Compound 02]	17.29 ± 3.23	1.68 ± 0.38	16.01 ± 2.99	0.68 ± 0.18	–	–	–	–
Cc1ccc(C)c(OCCCC(C)(C)C(=O)NCC(=O)c2ccc(O)cc2)c1 [Compound 05]	15.30 ± 2.45	1.54 ± 0.24	14.38 ± 2.12	1.31 ± 0.15	–	–	–	–
CC(C)(Oc1ccc(Cl)cc1)C(=O)NCC(=O)c1ccc(O)cc1 [Compound 09]	13.64 ± 2.14	2.18 ± 0.22	11.64 ± 2.00	0.95 ± 0.14	–	–	–	–
CC(C)(Oc1ccc(C2CC2(Cl)Cl)cc1)C(=O)NCC(=O)c1ccc(O)cc1 (stereo not drawn) [Compound 07]	14.99 ± 1.45	1.74 ± 0.46	13.90 ± 1.21	1.39 ± 0.16	–	–	–	–
Cc1ccc(C)c(OCCCC(C)(C)C(=O)NCC(=O)c2ccc(OC(=O)C(C)(C)CCCOc3cc(C)ccc3C)cc2)c1 [Compound 06]	16.37 ± 2.26	1.49 ± 0.29	15.78 ± 2.00	1.53 ± 0.16	–	–	–	–
CCC(C)(Oc1ccc(C2(c3ccc(OC(C)(CC)C(=O)NCC(=O)c4ccc(O)cc4)cc3)CCCCC2)cc1)C(=O)NCC(=O)c1ccc(O)cc1 (stereo not drawn) [Compound 12]	20.17 ± 1.27	1.895 ± 0.39	19.31 ± 1.52	0.75 ± 0.25	–	–	–	–
CC(C)(Oc1ccc(C2CC2(Cl)Cl)cc1)C(=O)NCC(=O)c1ccc(OC(=O)C(C)(C)Oc2ccc(C3CC3(Cl)Cl)cc2)cc1 (stereo not drawn) [Compound 08]	12.92 ± 2.10	2.12 ± 0.27	11.41 ± 1.90	0.83 ± 0.13	–	–	–	–
CC(C)(Oc1ccc(C(=O)c2ccc(Cl)cc2)cc1)C(=O)NCC(=O)c1ccc(O)cc1 [Compound 03]	12.63 ± 2.77	1.54 ± 0.20	11.11 ± 2.45	0.99 ± 0.18	–	–	–	–
CCC(CC)(CCCOc1cc(C)cc(C)c1)C(=O)NCC(=O)c1cccc(O)c1 [Compound 13]	20.17 ± 1.27	1.895 ± 0.39	19.31 ± 1.52	0.75 ± 0.25	–	–	–	–
Cc1ccc(C)c(OCCCC(C)(C)C(=O)NC2CCC(C(=S)c3ccc(O)cc3)CC2)c1 (stereo not drawn) [Compound 18]	15.04 ± 2.73	1.56 ± 0.51	13.47 ± 3.68	1.25 ± 0.33	–	–	–	–
C[C@H](CCC(=O)O)[C@H]1CC[C@H]2[C@@H]3[C@@H](O)C[C@@H]4C[C@H](O)CC[C@]4(C)[C@H]3CC[C@]12C [Ursodesoxycholic acid, reference compound]	–	–	–	–	0.98 ± 0.47	12.23 ± 3.04	28.63 ± 10.37	89.4 ± 45.3
Cc1cc(C(=O)CCNC(=O)C(C)(CCCOc2cc(Cl)ccc2C)C(C)C)ccc1O (stereo not drawn) [Compound 15]	15.00 ± 2.75	1.89 ± 0.26	14.04 ± 3.12	1.34 ± 0.48	–	–	–	–
COc1ccc(OCCCC(C)(C)C(=O)NCC(=O)c2ccc(O)c(C)c2)cc1C [Compound 14]	20.66 ± 3.23	2.25 ± 0.22	20.78 ± 3.46	0.99 ± 0.28	–	–	–	–
CC(C)(Oc1ccc(C(=O)c2ccc(Cl)cc2)cc1)C(=O)NCC(=O)c1ccc(OC(=O)C(C)(C)Oc2ccc(C(=O)c3ccc(Cl)cc3)cc2)cc1 [Compound 04]	10.02 ± 1.80	1.82 ± 0.19	9.84 ± 1.37	1.15 ± 0.12	–	–	–	–
Cc1ccc(C)c(OCCCC(C)(C)C(=O)NCC(=O)c2cc(O)cc(O)c2)c1 [Compound 19]	11.12 ± 1.01	1.36 ± 0.66	10.76 ± 1.25	0.94 ± 0.06	–	–	–	–
